Test results: US20260184708A1, “PYRIDAZINONES AND METHODS OF USE THEREOF” (GFB (ABC), LLC, priority 2017, published 2026)

Target: T1, TRPC5 (Homo sapiens, UniProt Q9UL62)
T1 construct: expressed in transfected cells; host or cells: HEK 293
T1 sequence (Q9UL62 1-973): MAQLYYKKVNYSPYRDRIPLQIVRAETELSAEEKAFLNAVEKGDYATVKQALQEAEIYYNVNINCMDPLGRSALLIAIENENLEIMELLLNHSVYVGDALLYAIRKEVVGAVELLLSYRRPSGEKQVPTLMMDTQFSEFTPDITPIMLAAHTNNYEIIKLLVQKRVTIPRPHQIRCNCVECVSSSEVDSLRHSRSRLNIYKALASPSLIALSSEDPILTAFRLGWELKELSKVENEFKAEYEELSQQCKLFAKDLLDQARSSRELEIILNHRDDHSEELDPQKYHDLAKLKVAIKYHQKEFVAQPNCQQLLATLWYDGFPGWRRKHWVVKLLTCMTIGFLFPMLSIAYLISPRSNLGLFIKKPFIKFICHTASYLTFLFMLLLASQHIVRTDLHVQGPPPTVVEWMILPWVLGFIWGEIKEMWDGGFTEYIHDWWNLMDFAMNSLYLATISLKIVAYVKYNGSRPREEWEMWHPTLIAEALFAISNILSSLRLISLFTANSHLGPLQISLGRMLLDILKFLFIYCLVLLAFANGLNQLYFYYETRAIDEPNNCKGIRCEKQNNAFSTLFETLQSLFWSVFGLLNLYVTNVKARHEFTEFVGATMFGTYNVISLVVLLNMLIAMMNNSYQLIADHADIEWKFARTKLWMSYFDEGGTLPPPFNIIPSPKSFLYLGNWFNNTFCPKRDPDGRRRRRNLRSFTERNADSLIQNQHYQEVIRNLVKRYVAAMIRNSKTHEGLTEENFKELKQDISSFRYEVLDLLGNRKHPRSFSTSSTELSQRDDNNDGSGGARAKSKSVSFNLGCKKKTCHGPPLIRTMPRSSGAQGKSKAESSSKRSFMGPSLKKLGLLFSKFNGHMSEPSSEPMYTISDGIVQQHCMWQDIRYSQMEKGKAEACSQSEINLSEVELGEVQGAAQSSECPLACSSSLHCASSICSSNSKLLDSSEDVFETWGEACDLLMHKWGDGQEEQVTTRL
Assay: TRPC5 automated electrophysiology (Syncropatch - Spatch format)
Type: cell-based
Details: Table 6; HEK293 cells overexpressing TRPC5
Description: The automated electrophysiological assay was carried out at room temperature. HEK-TRPC5 cells were cultured according to our standard operating procedures. Internal and external physiological solutions were freshly prepared prior to the assay. The free internal Ca2+ concentration was buffered to 1 μM according to the WCabuf software using 10 mMHEDTA. To monitor the ion currents, a voltage ramp from −100 mV to +80 mV, over 250 ms, was applied every 15 seconds, from a holding potential of −60 mV. To stabilize the inward and outward currents the voltage was kept steady at −100 mV and +80 mV for 20 ms. After recording for a minimum of 60 seconds control period, the activator (at 10, 15, 20 or 30 μM) was applied twice, before increasing concentrations of test compound (or vehicle) were applied to the cell. This was followed by a saturating concentration of the specific blocker ML 204 (100 μM). Graphs were plotted using the maximum outward current values obtained at +80 mV during the patch-clamp recordings. Data were normalized using the SyncroPatch384 equation Inorm=1−((Iconc−IFB)/(IRef−IFB)), where Iconc is the current amplitude at each concentration of agonist, IRef is the control current amplitude and IFB is the current in the presence of the saturating blocker ML204. Graphs were constrained between the maximum and minimum values. The series resistance (<15 MΩ) and quality of seals (>100 MΩ) were continuously monitored during the experiments. Data was analyzed using the Nanion Data Control384 software. EC/IC50 values were calculated using a least squares regression algorithm (Hill equation).

IC50 [µM]	SMILES
10 to 500	CC1c2nnn(Cc3ccccc3C(F)F)c2CCN1c1cn[nH]c(=O)c1Cl (centres unmarked) [drawing 923]
1e-05 to 1	CC1c2nnn(Cc3ccccc3C(F)F)c2CCN1c1cn[nH]c(=O)c1Cl (centres unmarked) [drawing 924]
